Consider four compounds from publication PMC11025498, “First-in-human Phase I Trial of TPST-1120, an Inhibitor of PPARα, as Monotherapy or in Combination with Nivolumab, in Patients with Advanced Solid Tumors” (Cancer Research Communications, 2024).

Read-outs that look alike come from different tables or passages of the source.

The subject of one assay is RCC. The assay can be described thus: prior regimens of the RCC responders. As to conditions: prior regimens of person RCC responder. Type of assay: in vivo, human.
Another assay relates to patients with RCC. As to conditions: nivolumab monotherapy after previous ICI therapy, retrospective, cited from earlier work.
The test system of assay [1] is patients with PD-L1 combined positive score ≤1. Further details: method as in PMID 32359091, PMID 32352498, PMID 35611499, PMID 34907910. As to conditions: CCA, KEYNOTE-158; cited from earlier work.

In the assay with RCC, `COc1cc2nccc(Oc3ccc(NC(=O)C4(C(=O)Nc5ccc(F)cc5)CC4)cc3)c2cc1OC` [Cabozantinib] showed a Duration of 6.3 mo.

In turn, `CO[C@H]1C[C@@H]2CC[C@@H](C)[C@@](O)(O2)C(=O)C(=O)N2CCCC[C@H]2C(=O)O[C@H]([C@H](C)C[C@@H]2CC[C@@H](OCCO)[C@H](OC)C2)CC(=O)[C@H](C)/C=C(\C)[C@@H](O)[C@@H](OC)C(=O)[C@H](C)C[C@H](C)/C=C/C=C/C=C/1C` [Everolimus] yielded a Duration in the assay with RCC of 6.1 mo.

For the compound nivolumab: PD-1 inhibitor, the ORR is given as 16% in the assay on patients with RCC (ref 33) and 23% with patients with RCC (ref 34).

For the compound “pembrolizumab: ICI monotherapy in the KEYNOTE-158 trial”, the ORR in assay [1] was 2.9%.
